Reference: patent publication EP0450066B1, “CARBOSTYRIL DERIVATIVES” (OTSUKA PHARMACEUTICAL CO., LTD., priority 1988, dated 1989)
Counter-ions that a name gives are not always drawn. Like-named read-outs stand apart in the source and are kept apart here.

Assays:
platelets = assay: Platelet aggregation inhibitory activity (method by Born et al., platelet rich plasma, ADP or collagen as inducer); type: cell-based; details: rabbit PRP, 400,000 platelets/µl, 37°C
Procedure: This sample was subjected to centrifugation at 1,100 rpm for 10 minutes to obtain a platelet rich plasma (PRP). The remaining sample was subjected to further centrifugation at 3,000 rpm for 15 minutes to obtain a platelet poor plasma (PPP).
The number of platelets in the PRP obtained above was counted by coulter Counter manufactured by Coulter Electronics Inc. Then, the PRP was diluted with the PPP so that the number of platelets in the PRP after dilution became 400,000 platelets/µl, whereby a PRP solution was prepared.
There were placed in a cell for aggregation determination, 2 µl of a solution containing a test compound at a given concentration and 200 µl of the PRP solution prepared above. The cell was heated at 37°C for 1 minute. Then, to the cell contents was added 20 µl of adenosine diphosphate (ADP, manufactured by Sigma Co.) or 20 µl of a collagen suspension (Collagen Reagent Horm, manufactured by Hormon-Chemie Co.) to induce aggregation of platelets. Then, the platelet aggregation was determined for change in transmittance, and a platelet aggregation curve was drawn.
The mixture aggregation rate (MAR) of platelets was calculated from the platelet aggregation curve, using the following formula.
In the above, MAR was calculated also for a control containing no test compound. Using this MAR as a base, the platelet aggregation inhibitions rate (%) of each test compound at various concentrations were calculated from the following formula. Inhibition rate (%) = [1-(MAR of test compound-containing PRP)/(MAR of test compound-free PRP)] x100 [formula]

mongrel dogs = assay: Increase in heart rate in anesthetized mongrel dogs; type: in vivo; details: mongrel dogs under pentobarbital sodium anesthesia, artificial breathing; 30 µg/kg through cannula in femoral artery
Procedure: Increase in heart rate as well as hypotensive activity of test compounds were measured as follows by using mongrel dogs (body weight = 10-20 kg). That is, mongrel dogs were put under anesthesia by intravenous administration of pentobarbital sodium, then fixed at the back position, and subjected to testing under artificial breathing condition. Blood pressure was measured by using a blood pressure transducer (P23XL, manufactured by Gould Statham Instruments, Inc.) via a cannula inserted into the femoral artery of the mongrel dog. Heart rate was measured via a tachometer, based on the pulse wave of the blood pressure. These signals were recorded on a thermal-pen type recorder (Recti-Horiz 8K, manufactured by Nihon Denki San-ei).
The test compounds mentioned in the Pharmacological Test I were also used as test compounds in this Test-II. Each of them was dissolved in a mixed solution of N,N'-dimenthylformamide and a physiological saline solution, and each resulting solution was administered to the test dogs through the cannulas inserted into their femoral arteries, in an amount of 30 µg (test compound)/kg of body weight. The heart rate of each dog after the administration of test compound was measured as mentioned above, whereby the maximum increase in heart rate was obtained.

[1] = Oryctolagus cuniculus, Platelet, aggregation induced by ADP, final concentration 7.5 µM, read-out: IC50 (µM) ADP
[2] = Oryctolagus cuniculus, Platelet, aggregation induced by collagen, final concentration 20 µg/ml, read-out: IC50 (µM) Collagen
[3] = aggregation induced by ADP, final concentration 7.5 µM, read-out: IC50 (µM) ADP
[4] = aggregation induced by collagen, final concentration 20 µg/ml, read-out: IC50 (µM) Collagen

IC50 (platelets; [1]) | IC50 (platelets; [2]) | Compound | Maximum increase in heart rate (beats/min) (Administration amount = 30 µg/kg) (mongrel dogs) | IC50 (platelets; [3]) | IC50 (platelets; [4]) | also measured
1.5 µM | 0.71 µM | CCN(CC)C(=O)CN(CC1CCCCCCC1)C(=O)CCCCOc1ccc2[nH]c(=O)ccc2c1 [Example 19] | – | – | – | –
2.2 µM | 2.2 µM | O=C(CCCCOc1ccc2[nH]c(=O)ccc2c1)N(CCSC1CCCCO1)CC1CCCCC1 (stereo not drawn) [Example 45] | – | – | – | –
2.2 µM | 1.3 µM | CC(=O)NCCN(CC1CCCCCCC1)C(=O)CCCCOc1ccc2[nH]c(=O)ccc2c1 [Example 24] | – | – | – | –
3.6 µM | 1.3 µM | C=CCN(CC)CCN(CC1CCCCCCC1)C(=O)CCCCOc1ccc2[nH]c(=O)ccc2c1 [Example 26] | – | – | – | –
1.2 µM | 0.8 µM | CCN(CC)C[C@H](CO)N(CC1CCCCCCC1)C(=O)CCCCOc1ccc2[nH]c(=O)ccc2c1 [Example 22] | – | – | – | –
– | – | 6-[4-(N-cyclooctylmethyl-N-diethylamidomethyl)-aminocarbonyl]butoxy}carbostyril [Test compound 19] | – | 2.1 µM | 1.3 µM | –
– | – | O=C(CCCCOc1ccc2[nH]c(=O)ccc2c1)N(CCN1CCC(O)C1)CC1CCCCCCC1.O=C(O)C(=O)O (stereo not drawn) [Example 6] | 5 beats/min | 3.5 µM | 1.3 µM | –
– | – | O=C(CCCCOc1ccc2[nH]c(=O)ccc2c1)N(CCN1CCCCC1CO)CC1CCCCCCC1 (stereo not drawn) [Example 4] | 6 beats/min | 2.7 µM | 1.6 µM | –
– | – | 6-[4-{N-cyclooctylmethyl-N-[2-(2β-dimethylamino-methyl-1-pyrrolidinyl)ethyl]aminocarbonyl}butoxy]-carbostyril difumarate [Test compound 10] | – | 3.9 µM | 1.8 µM | –
1.1 µM | 0.53 µM | CSCCC(CO)N(CC1CCCCC1)C(=O)CCCCOc1ccc2[nH]c(=O)ccc2c1 (stereo not drawn) [Example 46] | – | – | – | –
5 µM | – | CCN(CC)CCCN(CC1CCCCCCC1)C(=O)CCCCOc1ccc2[nH]c(=O)ccc2c1 [Example 17] | – | – | 2.8 µM | –
– | – | CCN(CC)CCN(CC1CCCCCCC1)C(=O)CCCCOc1ccc2c(c1)CCC(=O)N2 [Test compound 20, 6-{4-[N-cyclooctylmethyl-N-(2-diethylaminoethyl)-aminocarbonyl]butoxy}3,4-dihydrocarbostyril oxalate] | – | – | – | IC50 (platelets; aggregation induced by ADP, final concentration 7.5 µM, listed as 34, oxalate, read-out: IC50 (µM) ADP): 0.84 µM; IC50 (platelets; aggregation induced by collagen, final concentration 20 µg/ml, listed as 34, oxalate, read-out: IC50 (µM) Collagen): 0.48 µM
– | – | O=C(CCCCOc1ccc2[nH]c(=O)ccc2c1)N(CCN1CCOCC1)CC1CCCCCCC1 [Example 7] | – | 1.5 µM | 0.65 µM | –
– | – | 6-[4-{N-cyclohexylmethyl-N-[2-(1-pyrrolidinyl)-ethyl]aminocarbonyl}butoxy]carbostyril [Example 1] | – | 3.4 µM | 1.1 µM | –
0.63 µM | 0.49 µM | CSCCC(COC(C)=O)N(CC1CCCCC1)C(=O)CCCCOc1ccc2[nH]c(=O)ccc2c1 (stereo not drawn) [Example 47] | – | – | – | –
2.1 µM | 1.4 µM | CCN(CCO)CCN(CC1CCCCCCC1)C(=O)CCCCOc1ccc2[nH]c(=O)ccc2c1 [Example 25] | – | – | – | –
– | – | O=C(CCCCOc1ccc2[nH]c(=O)ccc2c1)N(CCn1ccnc1)CC1CCCCC1 [Example 12] | 12 beats/min | 6 µM | 3.2 µM | –
– | – | CCN(CC)CCCN(CC1CCCCCCC1)C(=O)CCCCOc1ccc2[nH]c(=O)ccc2c1 [Test compound 17, 6-{4-[N-cyclooctylmethyl-N-(3-diethylaminopropyl)-aminocarbonyl]butoxy}carbostyril oxalate] | – | – | – | IC50 (platelets; aggregation induced by ADP, final concentration 7.5 µM, listed as 28, oxalate, read-out: IC50 (µM) ADP): 2.8 µM; IC50 (platelets; aggregation induced by collagen, final concentration 20 µg/ml, listed as 28, oxalate, read-out: IC50 (µM) Collagen): 1.2 µM
– | – | CC(=O)NCCN(CC1CCCCCCC1)C(=O)CCCCOc1ccc2[nH]c(=O)ccc2c1 [Test compound 24, 6-{4-[N-cyclooctylmethyl-N-(2-acetylaminoethyl)-aminocarbonyl]butoxy}carbostyril] | – | – | – | IC50 (platelets; aggregation induced by ADP, final concentration 7.5 µM, listed as 42, read-out: IC50 (µM) ADP): 1.9 µM; IC50 (platelets; aggregation induced by collagen, final concentration 20 µg/ml, listed as 42, read-out: IC50 (µM) Collagen): 1.6 µM
– | – | CCN(CC)CCN(CC1CCCCCCC1)C(=O)CCCCOc1ccc2c(c1)CCC(=O)N2 [Example 20] | 4 beats/min | 21.2 µM | 7 µM | –
– | – | CC1CCCC(C)N1CCN(CC1CCCCCCC1)C(=O)CCCCOc1ccc2[nH]c(=O)ccc2c1 (stereo not drawn) [Example 9] | 0 beats/min | 4.5 µM | 1.6 µM | –
– | – | CCN(CC)CCCCN(CC1CCCCCCC1)C(=O)CCCCOc1ccc2[nH]c(=O)ccc2c1.O=C(O)C(=O)O [Test compound 18, 6-{4-[N-cyclooctylmethyl-N-(4-diethylaminobutyl)-aminocarbonyl]butoxy}carbostyril oxalate] | 2 beats/min | – | – | IC50 (platelets; aggregation induced by ADP, final concentration 7.5 µM, listed as 29, oxalate, read-out: IC50 (µM) ADP): 8.3 µM; IC50 (platelets; aggregation induced by collagen, final concentration 20 µg/ml, listed as 29, oxalate, read-out: IC50 (µM) Collagen): 3.7 µM

Compound | IC50 (platelets; [1]) | IC50 (platelets; [2]) | Maximum increase in heart rate (beats/min) (Administration amount = 30 µg/kg) (mongrel dogs) | IC50 (platelets; [3]) | IC50 (platelets; [4]) | also measured
O=C(CCCCOc1ccc2[nH]c(=O)ccc2c1)N(CCS)CC1CCCCC1 [Example 44] | 5 µM | 3.6 µM | 11 beats/min | – | – | –
CCN(CC)C[C@H](C)N(CC1CCCCCCC1)C(=O)CCCCOc1ccc2[nH]c(=O)ccc2c1 [Example 21] | 5.4 µM | 3.2 µM | 7 beats/min | – | – | –
CCN(CC)CCCCN(CC1CCCCCCC1)C(=O)CCCCOc1ccc2[nH]c(=O)ccc2c1 [Example 18] | 6 µM | 4.8 µM | 5 beats/min | – | – | –
O=C(CCCCOc1ccc2[nH]c(=O)ccc2c1)N(CCN1CCC(O)C1)CC1CCCCCCC1 (stereo not drawn) [Test compound 6, 6-[4-{N-cyclooctylmethyl-N-[2-(3-hydroxy-1-pyrrolidinyl)ethyl]aminocarbonyl}butoxy]carbostyril oxalate] | 1.7 µM | 0.5 µM | – | – | – | –
CCN(CC)CCN(CC1CCCCCCC1)C(=O)CCCCOc1ccc2[nH]c(=O)ccc2c1 [Example 16] | 3 µM | 1.1 µM | 7 beats/min | – | – | –
O=C(CCCCOc1ccc2[nH]c(=O)ccc2c1)N(CCN1CCC(O)CC1)CC1CCCCCCC1 [Test compound 8, 6-[4-{N-cyclooctylmethyl-N-[2-(4-hydroxy-1-piperidinyl)ethyl]aminocarbonyl}butoxy]carbostyril] | 1.7 µM | 0.7 µM | – | – | – | –
